Assay [1] has as its system NPSR1-Ile(107). The following applies: cell models; cited from earlier work. The source says:
The functional NPSR1 SNP rs324981 (A>T), encoding a substitution of Asn(107)Ile in the putative ligand-binding pocket of NPSR1 [5], has shown associations with neuropsychiatric phenotypes, such as panic disorders, psychological stress, and fear responses. […] In cell models, the change of Asn(107) to Ile(107) results in 10-fold increase in NPS-mediated intracellular sign ... || A key strength of this study is the use of robust in vitro cell assays that allowed us to dissect the functional effects of coding NPS/NPSR1 variants on receptor signaling and downstream gene expression. Our cell assays confirmed that stimulation of cells transfected with either NPSR1-Asn(107) or NPSR-Ile(107) with the wildtype NPS-Val(6), induced CRE activity as described previously.

The subject of the next assay is NPSR1. The following applies: cited from earlier work. The source says:
To compare the bioactivities of the two NPS variants, we measured the dose-responses of NPSR1-Ile(107) and NPSR1-Asn(107) coding variants to either wildtype NPS-Val(6) or alternative NPS-Leu(6) in a luciferase assay dependent on the activation of a cAMP-response element (CRE). This assay was used since elevation of the intracellular cAMP levels activates cAMP response element binding protein (CREB) via […]. Activated CREB binds to CRE and induces the expression of downstream target ...

Assay [2] has as its target T1, NPSR1-Ile(107) (Homo sapiens, UniProt Q6W5P4, N107I).
T1 sequence (Q6W5P4 1-371 N107I): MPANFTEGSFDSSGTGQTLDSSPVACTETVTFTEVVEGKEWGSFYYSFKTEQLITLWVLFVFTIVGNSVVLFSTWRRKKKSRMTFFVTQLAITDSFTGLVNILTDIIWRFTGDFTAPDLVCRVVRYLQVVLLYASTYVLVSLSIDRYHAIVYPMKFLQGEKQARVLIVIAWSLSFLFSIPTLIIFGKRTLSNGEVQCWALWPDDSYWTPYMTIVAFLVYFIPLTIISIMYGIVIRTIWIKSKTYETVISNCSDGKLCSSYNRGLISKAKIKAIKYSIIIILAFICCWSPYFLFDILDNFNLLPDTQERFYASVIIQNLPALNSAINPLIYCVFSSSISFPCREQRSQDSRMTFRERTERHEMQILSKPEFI
As to the kind of experiment: Real-time RT-PCR of downstream target genes in SH-SY5Y cells stably overexpressing NPSR1-Ile(107). The assay is classed as cell-based. Set-up: expressed in transfected cells. Conditions: SH-SY5Y over-expressing NPSR1-Ile(107), 0.0001–1 μM, 3 h, dose dependent. On the procedure: Fig 2 Real time RT-PCR analysis of NPSR1 downstream target genes. (A) Time-dependent mRNA expression of NR4A1, FOS, CXCL2, and CCL20 in human embryonic kidney epithelial (HEK293) cells transiently transfected with either NPSR1-Ile(107) or NPSR1-Asn(107) coding variants and stimulated with either NPS-Val(6) or NPS-Leu(6) NPS (100 nM) for 1, 3, 6, and 24 h. (B) Dose-response curves of NR4A1, FOS, IER3, and EGR1 in human SH-SY5Y stable cell line over-expressing NPSR1-Ile(107) stimulated with either NPS-Leu(6) or NPS V6 (0.0001–1 μM) for 3 h. The results are presented as fold-changes in comparison to the unstimulated cells. GAPDH was used as the endogenous reference, and data are expressed as mean of triplicate samples. […] In all experiments, results were calculated with the comparative Ct method.
Altered neuroinflammatory mechanisms have been implicated in allergic airway inflammation. […] SH-SY5Y cells stably overexpressing NPSR1-Ile(107) were stimulated with either NPS-Leu(6) or NPS-Val(6) (0.0001–1 μM) for 3 h and the mRNA expression of known downstream target genes in these cells was detected using RT-PCR. […] These observations validated the results detected in HEK293 cells in an independent cell line.
The stable NPSR1-A-GFP expressing SH-SY5Y cells were engineered and cultured as described before. […] The changes in gene expression were analyzed with real-time PCR (RT-PCR). […]
For orientation: In qPCR the cycle at which signal appears reflects the starting amount.

In the case of “Neuropeptide S (SFRNGVGTGMKKTSFQRAKS; Neuropeptide S; UniProt P0C0P6 70-89, looked up) [NPS, Neuropeptide S, variant not specified at the place]”, the “increase in NPS-mediated intracellular signaling on change of Asn(107) to Ile(107)” value in the assay with NPSR1-Ile(107) [1] is listed as 10 fold. Moreover, the “cAMP production on NPSR1 activation (in words)” value in the assay with NPSR1 is recorded as “increasing cAMP production”. Also, the “mRNA expression of NR4A1, FOS, EGR1 and IER3 (in words)” value with NPSR1-Ile(107) [2] is recorded as “increased”.

The values are drawn from article PMC5413018, “Neuropeptide S (NPS) variants modify the signaling and risk effects of NPS Receptor 1 (NPSR1) variants in asthma” (PLoS ONE, 2017).
